In brackets after ≈: the same amount, converted by molar mass. Where a SMILES comes first, the peptide text is derived from it. [ ]: non-standard residue; d: D form. The star is where a group is joined. Phe(4-tBu) = CC(C)(C)c1ccc(C[C@H](N)C(=O)O)cc1; tBuAla = CC(C)(C)C[C@H](N)C(=O)O; Tle = CC(C)(C)[C@H](N)C(=O)O; OBn = c1ccc(CO*)cc1
Assays:
[1] = system: Escherichia coli ATCC 25922; test: microbe, parasite or virus in culture; conditions: ATCC25922, read-out: MIC E. coli
[2] = system: Staphylococcus aureus ATCC 25923; test: microbe, parasite or virus in culture; conditions: ATCC25923, read-out: MIC S. aureus
[3] = system: Escherichia coli ATCC 25922; conditions: ATCC 25922
[4] = system: Staphylococcus aureus ATCC 25923; conditions: ATCC 25923
MRSA ATCC 33591 = conditions: ATCC 33591
Procedure: (§1) All strains were stored at −70° C. […] All assays were performed in duplicate.

MRSE ATCC 27626 = conditions: ATCC 27626
Procedure: as §1

[5] = system: fresh human red blood cells; format: cell-based
Procedure: The hemolytic activities of the peptides were determined using fresh human red blood cells. 8 ml blood was taken from a healthy person. 4 ml blood was transferred to a polycarbonate tube containing heparin to a final concentration of 10 U/ml, and the remaining 4 ml blood was transferred to a glass tube containing EDTA with final concentration of 15% EDTA. The erythrocytes were isolated from heparin-treated blood by centrifugation in 1500 rpm for 10 min and washed three times with phosphate-buffered saline (PBS) to remove plasma and buffy coat. The cell pellet was resuspended in PBS to make the final volume of 4 ml. The peptide was diluted to a concentration of 2 mg/ml and 0.1 mg/ml. The peptide was further diluted to the concentrations as stated in Table 15. For each tube PBS was added first, then RBCs and peptide solutions. The hematocrit in the blood treated with EDTA was determined after 30 min with Sysmex K-1000, and the resuspended RBCS were diluted into 10% hematocrit. RBCs in PBS (1%) with and without peptides (Table 15) were incubated in a shaker at 37° for 1 hour and then centrifuged at 4000 rpm for 5 min. The supernatant were carefully transferred to new polycarbonate tubes and the absorbance of the supernatant was measured at 540 nm. […]

[6] = system: Escherichia coli ATCC 25922; conditions: for MBC E. coli: ATCC 25922; for bacteriostatic or bactericidal: in respect of E. coli, high MBC but low MIC indicates bacteriostatic
[7] = system: Staphylococcus aureus ATCC 25923; conditions: ATCC 25923; remark: listed apart in the source
E. coli = test: Electronmicrograph of treated bacteria; format: cell-based; conditions: FIG. 2
Description: FIG. 1 is an electronmicrograph of normal (untreated) E. coli, and
FIG. 2 is an electronmicrograph of E. coli treated with one of the peptides described herein, WRWRWR [SEQ ID NO:1].

Procedure for P. aeruginosa: as §1

| SMILES | MIC E. coli [3] [µg/mL] | MIC S. aureus [4] | MIC MRSA (MRSA ATCC 33591) [µg/mL] | MIC MRSE (MRSE ATCC 27626) [µg/mL] | MIC P. aerug. (P. aeruginosa) [µg/mL] | other results |
| --- | --- | --- | --- | --- | --- | --- |
| CC(C)(C)c1cc(C(C)(C)C)c2[nH]c(C(C)(C)C)c(C[C@H](N)C(=O)NCCCCN)c2c1 [H-Tbt-Dab-H] |  |  |  |  |  | MIC [1]: 35 µg/mL (≈ 79.1 µM); MIC [2]: 35 µg/mL (≈ 79.1 µM) |
| CC(C)(C)c1cc(C(C)(C)C)c2[nH]c(C(C)(C)C)c(C[C@H](N)C(=O)NCCN)c2c1 [H-Tbt-Dae-H] |  |  |  |  |  | MIC [1]: 15 µg/mL (≈ 36.2 µM); MIC [2]: 15 µg/mL (≈ 36.2 µM) |
| CC(C)(C)c1cc(C(C)(C)C)c2[nH]c(C(C)(C)C)c(C[C@H](N)C(=O)NCCCCCCN)c2c1 [H-Tbt-Dah-H] |  |  |  |  |  | MIC [1]: 15 µg/mL (≈ 31.9 µM); MIC [2]: 15 µg/mL (≈ 31.9 µM) |
| NCCCC[C@H](N)C(=O)O[C@H](Cc1c[nH]c2ccccc12)C(=O)OCc1ccccc1 [Kψ(COO)wOBzl] |  |  |  |  |  | Minimum inhibitory concentration E. coli [3]: 150 µg/mL (≈ 354 µM); Minimum inhibitory concentration S. aureus [4]: 50 µg/mL (≈ 118 µM); Minimum inhibitory concentration MRSA (MRSA ATCC 33591): 100 µg/mL (≈ 236 µM); Minimum inhibitory concentration MRSE (MRSE ATCC 27626): 37.5 µg/mL (≈ 88.5 µM); Minimum inhibitory concentration P. aeruginosa (P. aeruginosa): 300 µg/mL (≈ 708 µM) |
| COC(=O)[C@H](CCCNC(=N)N)NC(=O)[C@H](Cc1c(C(C)(C)C)[nH]c2c(C(C)(C)C)cc(C(C)(C)C)cc12)NC(=O)[C@@H](N)CCCNC(=N)N [RTbtR OMe, H-Arg-Tbt-Arg-OMe] | 25 (≈ 35.8 µM) | 5 (5) μg/ml |  |  |  | haemolysis EC50 [5]: 720 µg/mL; MBC E. coli [6]: 50 µg/mL (≈ 71.5 µM); bacteriostatic or bactericidal [6]: bactericidal; MBC S. aureus [7]: 5 (5) μg/ml |
| COC(=O)[C@H](CCCNC(=N)N)NC(=O)[C@@H](N)Cc1c(C(C)(C)C)[nH]c2c(C(C)(C)C)cc(C(C)(C)C)cc12 [TbtR OMe, H-Tbt-Arg-OMe] |  |  | 4.0 (≈ 7.37 µM) | 4.0 (≈ 7.37 µM) |  | haemolysis EC50 [5]: 360 µg/mL; MBC E. coli [6]: 200 µg/mL (≈ 368 µM); bacteriostatic or bactericidal [6]: bacteriostatic; MBC S. aureus [7]: 10 (10) μg/ml |
| N=C(N)NCCC[C@H](NC(=O)[C@H](Cc1c[nH]c2ccccc12)NC(=O)[C@H](CCCNC(=N)N)NC(=O)[C@H](Cc1c[nH]c2ccccc12)NC(=O)[C@H](CCCNC(=N)N)NC(=O)[C@@H](N)Cc1c[nH]c2ccccc12)C(N)=O [WRWRWR] (H-WRWRWR-NH2) | 7.5 (≈ 7.18 µM) | 7.5 µg/mL (≈ 7.18 µM) |  |  |  | appearance of treated E. coli in electronmicrograph (E. coli): void of cytoplasmic matter and their cell membranes (as well as cell wall components) are destroyed; MBC E. coli [6]: 15 µg/mL (≈ 14.4 µM); MBC S. aureus [7]: 10 µg/mL (≈ 9.58 µM) |
| CC(C)(C)C[C@H](N)C(=O)N[C@@H](CCCNC(=N)N)C(=O)OCc1ccccc1 [tBuAR-OBzl] (H-[tBuAla]-Arg-OBn; N-terminus assumed) | >300.0 | 300.0 µg/mL (≈ 766 µM) | 150 to 200 | 100.0 (≈ 255 µM) | >300.0 |  |
| CC(C)(C)c1ccc(C[C@H](N)C(=O)N[C@@H](CCCNC(=N)N)C(=O)OCc2ccccc2)cc1 [tBuFR-OBzl] (H-[Phe(4-tBu)]-Arg-OBn; N-terminus assumed) | 200.0 (≈ 428 µM) | 25.0 µg/mL (≈ 53.5 µM) | 12.5 to 25 | 5.0 (≈ 10.7 µM) | 100.0 (≈ 214 µM) |  |
| COC(=O)[C@H](CCCNC(=N)N)NC(=O)[C@@H](N)Cc1ccc(C(C)(C)C)cc1 [tBuFR-OMe] (H-[Phe(4-tBu)]-Arg-OMe; N-terminus assumed) | >300.0 | >300.0 µg/mL | 100.0 (≈ 255 µM) | 100.0 (≈ 255 µM) | >300.0 |  |
| CC(C)(C)[C@H](N)C(=O)N[C@@H](CCCNC(=N)N)C(=O)OCc1ccccc1 [tBuGR-OBzl] (H-[Tle]-Arg-OBn; N-terminus assumed) | >300.0 | >300.0 µg/mL | 100.0 (≈ 265 µM) | 150.0 (≈ 397 µM) | >300.0 |  |

— patent publication US9115169B2, “Method of treating tumors” (Lytix Biopharma AS, priority 2000, dated 2015)
